Consider 13 molecules from patent publication US20220040136A1, “TREATMENT OF VULVOVAGINAL DISORDERS” (University of Rochester, priority 2018, published 2022).

What all share (format): cell-based
For assay [1], the system named is human vulvar fibroblasts. Kind of assay: In vitro LPV model: SPM pre-treatment of patient vestibular/vulvar fibroblasts before inflammatory stimulation, IL-6 and PGE2 by ELISA/EIA. The conditions noted are these: for effect on proinflammatory mediators linked to pain, initial tests: pre-treatment strategy, human vulvar fibroblasts; for prostaglandin E2 (PGE2) production / interleukin-6 (IL-6) production: pre-treated 10 hours with 5 nM SPM, vestibular and external vulvar fibroblasts; for prostaglandin E2 (PGE2) production: then IL-1β 10 pg/ml 48 hr, FIG. 5A; for interleukin-6 (IL-6) production: then bradykinin 100 nM 48 hr, FIG. 5B; for IL-6 production / PGE2 production: pre-treated 18 h at 5 nM, again 30 min prior to activation, IL-1β 10 pg/ml 48 h, booster at 24 h; for IL-6 production: FIG. 23A; for PGE2 production: FIG. 23B. The procedure:
(§1) FIGS. 5A, 5B, 5C, and 5D are a set of diagrams showing that PGE2 and IL-6 production is reduced by SPMs. Patient vestibular or vulvar fibroblasts were pre-treated for 10 hours with Lipoxin A4 (LxA4), Resolvin D2 (RvD2), (7R)-Maresin 1 or epi(7S)-Maresin 1 at a 5 nM concentration, then activated with IL-1β (Panel A; 10 pg/ml) or bradykinin (Panel B; 100 nM) for 48 hr. Culture media were collected and analyzed for PGE2 (Panel A) or IL-6 (Panel B) content. Patient fibroblasts were also activated first with IL-1β for 30 min then treated with 5 nM (7R)-Maresin 1 or LXA4 for 18 hours, followed by a booster dose for 6 hr. Culture media were collected and analyzed for PGE2 (Panel C) or IL-6 (Panel D) content. Mean+/−SEM of n=3, ANOVA *p<0.05 vs. activation only (no SPM).
FIGS. 23A and 23B are diagrams showing six SPMs are effective in reducing IL-6 and PGE2 production from fibroblasts when used as a pre-treatment and post-treatment. Patient vestibular or vulvar fibroblasts were pre-treated for 18 h with Resolvin D3 (RvD3), Resolvin D4 (RvD4), Resolvin D5 (RvD5), Resolvin E1 (RvE1), Protectin D1 or Protectin DX at a 5 nM concentration, pre-treated again for 30 min prior to activation, then activated with 10 pg/ml IL-1β for 48 h with a booster SPM dose at 24 h. Culture media were collected and analyzed for IL-6 (Panel A) and PGE2 (Panel B). Mean+/−SEM of n=6 (two cases run in triplicate), ANOVA *p<0.05 vs. activation only (IL-1b).
(§2) In this example, a fibroblast-based in vitro LPV model was established. Briefly, fibroblast strains were obtained from two regions (FIG. 1) of the lower genital tract of localized provoked vulvodynia (LPV) cases and pain-free controls in the manner described in Falsetta et al. Am J Obstet Gynecol 2015, vol. 213, pp. 38 e1-12 and Foster et al., Pain 2015, vol. 156, pp. 386-96.
(§3) Over 30 paired fibroblast strains obtained from LPV-afflicted cases (fulfilling Friedrich's Criteria)^25 and age/race-matched (critical variables influencing LPV),^26, 27 pain-free controls were obtained. All subjects who contributed to the library were premenopausal, denied oral corticosteroids, non-steroidal, immunomodulatory, or anti-inflammatory medication use, and reported an absence of systemic/cutaneous inflammatory conditions at the time of sample collection. Mechanical pain thresholds were determined (via a method of limits) (0.5-5 N) using a Wagner algometer. Fibroblast identity was confirmed by microscopy and fibroblast markers (vimentin, collagen); only low passage (˜4) cells are used.
(§4) Synthesized, purified and commercially available SPMs from each known SPM class (E-series Resolvins, D-series Resolvins, Maresins, Protectins and Lipoxins) at low/nanomolar concentrations (1-100 nM) were tested. […] The inventors used one of two treatment regimens proven effective in vulvar fibroblasts and other cells: 1) overnight pre-treatment, followed by another treatment 30 min prior to stimulation with proinflammatory stimuli for 48 hr with a third dose of SPMs at 24 hr post-challenge, or 2) post-treatment with SPMs after a 30 min pre-treatment with inflammatory stimuli, followed by a booster dose 18 hr later. Both treatment regimens are of interest, as SPMs are active throughout the inflammatory process.^5-7 Even SPMs administered after LPV onset are likely to prevent the worsening or spread of LPV pain.
Next, SPMs from other classes (E series Resolvins and Protectins), as well as additional SPMs from classes containing members that are effective in reducing IL-6 and PGE2 production (e.g., Maresins) were investigated in similar screen. […] SPMs that were effective in reducing more than one proinflammatory mediator in at least 2 tests can be examined for further testing using a preclinical mouse model. […] These additional effective SPMs include Resolvin D3, Resolvin D4, Resolvin D5, Resolvin E1, Protectin D1, and Protectin DX. […]

For assay [2], the system named is human vulvar fibroblasts. Kind of assay: In vitro LPV model: SPM post-treatment of already activated patient fibroblasts, IL-6 and PGE2. The conditions noted are these: post-treatment: IL-1β 30 min; for IL-6 production / PGE2 production: then 5 nM 18 hours, booster dose 24 hr; for IL-6 production: FIG. 24A; for PGE2 production: FIG. 24B. The procedure: as §1
FIGS. 24A and 24B are diagrams showing that six SPMs are effective in reducing IL-6 and PGE2 production from fibroblasts when used as a post-treatment. Patient vestibular or vulvar fibroblasts were activated first with IL-1β for 30 min then treated with RvD3, RvD4, RvD5, RvE1, Protectin D1 or Protectin DX at a 5 nM concentration for 18 hours, followed by a booster SPM dose for 24 hr. Culture media were collected and analyzed for IL-6 (Panel A) and PGE2 (Panel B) content. Mean+/−SEM of n=6 (two cases run in triplicate), ANOVA *p<0.05 vs. activation only (IL-1b). […] The magnitude of reduction was not as great as pre-treatment, but equally significant as the reduction from pre-treatment regimens.
as §2, §3, §4

In assay [3] the test system is Mouse vulvar tissue. Kind of assay: Mouse vulvar explants (4 mm punch biopsy), IL-1β-stimulated PGE2 production. Particulars: pre-treatment 18 hours, then IL-1β 10 pg/ml 18 hours; range of doses, as low as 1 nM; FIG. 6. How it is done:
FIG. 6 is a diagram showing that SPMs inhibit PGE2 production from mouse vulvar tissue. Mouse vulvar tissue (4 mm punch biopsies) was collected and bisected then pre-treated in culture medium with either Maresin 1 or RvD2 at indicated concentrations for 18 hours, followed by an additional 18 hours stimulation with IL-1β (10 pg/ml). Culture medium was collected and analyzed for PGE2 content. Mean+/−SEM; n=3 replicate cultures. ANOVA * p<0.05 vs. vehicle.
Although SPM structure and therapeutic efficacy is conserved across species,^5-7 inventors first confirmed that mouse vulvar tissues responded to SPM treatment in vitro by culturing mouse vulvar explants (4 mm punch biopsy). The explants were stimulated with IL-1, and then assays were carried to assess the ability of Maresin 1 or RvD2 to reduce PGE2 production under the established pre-treatment regimen.

As for `CC/C=C\C[C@H](O)/C=C/C=C\C/C=C\C/C=C\C/C=C\CCC(=O)O` [17(S)-HDHA, 17(S)-hydroxy docosahexaenoic acid], in assay [1], the “effect on proinflammatory mediators linked to pain, initial tests” value (shortened to “effect”) is listed as “no striking effects”.
Turning to `CC/C=C\C[C@@H](O)/C=C/C=C\C=C\C=C\[C@@H](O)[C@@H](O)C/C=C\CCC(=O)O` [AT-Resolvin D1, 7S,8R,17R-trihydroxy-docosa-4Z,9E,11E,13Z,15E,19Z-hexaenoic acid], the “effect” value in assay [1] is “no striking effects”.
`CCCCC[C@H](O)/C=C/C=C\C=C\C=C\[C@@H](O)[C@@H](O)CCCC(=O)O` [Lipoxin A4, 5S,6R,15S-trihydroxy-eicosa-7E,9E,11Z,13E-tetraenoic acid]: in assay [1], the “prostaglandin E2 (PGE2) production” value was “significantly reduced” and the “interleukin-6 (IL-6) production” value is reported as “significantly reduced”. The PGE2 levels result in assay [2] (then 5 nM SPM 18 hours, booster dose 6 hr, FIG. 5C) is reported as “significantly reduced”. In addition, in assay [2] (then 5 nM SPM 18 hours, booster dose 6 hr, FIG. 5D), the IL-6 levels result is on record as “significantly reduced”.
In the case of `CCCCC[C@H](O)[C@H](O)/C=C/C=C/C=C\C=C\[C@@H](O)CCCC(=O)O` [Lipoxin B4], in assay [1], the “effect” value was “no striking effects”.
As to `CC/C=C\C[C@H](O)\C=C/C=C/C=C/[C@H](O)C/C=C\C/C=C\CCC(=O)O` [Protectin D1, 10R,17S-dihydroxy-docosa-4Z,7Z,11E,13E,15Z,19Z-hexaenoic acid], in assay [1], the IL-6 production entry was “showed efficacy” and the PGE2 production result is recorded as “showed efficacy”. Besides, in assay [2], the IL-6 production entry was “showed efficacy” and the PGE2 production entry is recorded as “showed efficacy”.
Turning to `CC/C=C\C[C@H](O)/C=C/C=C\C=C\[C@@H](O)C/C=C\C/C=C\CCC(=O)O` [Protectin DX], in assay [1], the IL-6 production entry is “showed efficacy” and the PGE2 production entry was “showed efficacy”. Also, in assay [2], the IL-6 production result is on record as “showed efficacy” and the PGE2 production entry is listed as “showed efficacy”.
With `CC/C=C\C[C@H](O)/C=C/C=C\C=C\C=C\[C@@H](O)[C@@H](O)C/C=C\CCC(=O)O` [Resolvin D1, 7S,8R,17S-trihydroxy-docosa-4Z,9E,11E,13Z,15E,19Z-hexaenoic acid], in assay [1], the “effect” value was “no striking effects”.
As to `CC/C=C\C[C@H](O)[C@H](O)/C=C/C=C/C=C\C=C\[C@@H](O)C/C=C\CCC(=O)O` [Resolvin D2, 7S,16R,17S-trihydroxy-docosa-4Z,8E,10Z,12E,14E,19Z-hexaenoic acid], the “PGE2 responses following IL-1β treatment” value in assay [3] is listed as “significantly suppressed”. In assay [1], the “prostaglandin E2 (PGE2) production” value is reported as “significantly reduced” and the “interleukin-6 (IL-6) production” value is listed as “significantly reduced”.
Turning to `CC/C=C\C[C@H](O)/C=C/C=C\C[C@@H](O)/C=C/C=C/C=C\[C@@H](O)CCC(=O)O` [Resolvin D3, 4S,11R,17S-trihydroxy-docosa-5Z,7E,9E,13Z,15E,19Z-hexaenoic acid], in assay [1], the IL-6 production result was “showed efficacy” and the PGE2 production result is “showed efficacy”. Also, in assay [2], the IL-6 production result is “showed efficacy” and the PGE2 production result was “showed efficacy”.
In the case of `CC/C=C\C[C@H](O)/C=C/C=C\C\C=C/C=C/C=C/[C@@H](O)[C@@H](O)CCC(=O)O` [Resolvin D4, 4S,5,17S-trihydroxy-docosa-6E,8E,10Z,13Z,15E,19Z-hexaenoic acid], in assay [1], the IL-6 production entry is listed as “showed efficacy” and the PGE2 production result was “showed efficacy”. In assay [2], the IL-6 production result was “showed efficacy” and the PGE2 production entry is “showed efficacy”.
As to `CC/C=C\C[C@H](O)/C=C/C=C\C/C=C\C=C\[C@@H](O)C/C=C\CCC(=O)O` [Resolvin D5], in assay [1], the IL-6 production result is given as “showed efficacy” and the PGE2 production result is “showed efficacy”. Moreover, in assay [2], the IL-6 production entry is given as “showed efficacy” and the PGE2 production entry is “showed efficacy”.
Consider `CC[C@@H](O)/C=C/C=C\C[C@@H](O)/C=C/C=C/C=C\[C@@H](O)CCCC(=O)O` [Resolvin E1, 5S,12,18-trihydroxy-eicosa-6Z,8E,10E,14Z,16E-pentaenoic acid], for which, in assay [1], the IL-6 production result was “showed efficacy” and the PGE2 production result was “showed efficacy”. Also, in assay [2], the IL-6 production entry was “showed efficacy” and the PGE2 production result is on record as “showed efficacy”.
For `CC/C=C\C/C=C\C[C@H](O)\C=C/C=C/C=C/[C@@H](O)C/C=C\CCC(=O)O` [epi-Maresin 1, 7S,14S-docosa-4Z,8E,10E,12Z,16Z,19Z-hexaenoic acid], in assay [1], the “prostaglandin E2 (PGE2) production” value is reported as “significantly reduced” and the “interleukin-6 (IL-6) production” value was “significantly reduced”.
